In publication PMC6892276 (European Journal of Pharmaceutical Sciences, 2019):

How the values were obtained:
[1] = Metabolite profiling in human hepatocytes and HLM; type: in vitro ADME; settings: for metabolite abundance, % of T0 parent (LC-MS response): HLM only
Description: (§1) Suspended hepatocyte incubations for the purposes of metabolite identification and CLint determination were conducted as described by [Wood et al. (2018)] in round-bottomed 350 μl 96-well polypropylene plates on a PHMP thermoshaker (Grant Instruments (Cambridge) Ltd. (Shepreth, UK)) at 37 °C and 900 rpm. […] Individual wells were quenched with 120 μl of methanol containing internal standard over a time course (Table 1) and an aliquot removed for analysis.
(§2) Prior to initiation of the reaction by the addition of NADPH (final concentration 1 mM), an aliquot was removed from each incubation and quenched in ice cold methanol containing internal standard (referred to as T0). NADPH was subsequently added to this solution for matrix matching. The remaining reaction (with addition of NADPH) was allowed to proceed for 60 min. At 0.5, 5, 15, 30 and 60 min aliquots were sampled and quenched as above. Incubations were conducted in singlicate; control incubations (substituting PBS for NADPH) were conducted simultaneously.
(§3) For the purpose of metabolite identification, samples were analysed using a Dionex Ultimate 3000 UHPLC system coupled to a ThermoScientific Q Exactive Plus orbitrap mass spectrometer (Thermo Fisher Scientific Inc., Waltham, USA). Separation of analytes was achieved using an Acquity UPLC HSS T3 column (1.8 μm, 100 × 2.1 mm) (Waters, Elstree, UK) at a temperature of 50 °C and a binary mobile phase gradient at a flow rate of 0.4 ml/min. Initial conditions comprised 10% solvent A (0.1% formic acid in water), 90% solvent B (methanol); this was ramped to 95% A at 12 min, immediately returned to initial conditions and held for the remaining 3 min of the method. The UV absorbance of samples at 230 nm and 260 nm was monitored using a Dionex Ultimate 3000 diode array detector. Sample analysis was by electrospray atmospheric pressure ionization combined with full scan acquisition in positive ion mode over a mass range 80–1200 m/z. The capillary voltage was 3.5 kV; desolvation gas and capillary temperatures were 450 °C and 275 °C respectively; sheath, aux and sweep gas flow rates were 55, 15 and 3 respectively. Full MS/dd-MS^2 (full MS scan followed by data dependent MS/MS) and Full MS/AIF (full MS scan followed by all ion fragmentation) workflows were used in combination.
(§4) Identification of metabolites and elucidation of their proposed structures was undertaken with the aid of the software Compound Discoverer (v2.0.0.303, Thermo Fisher Scientific Inc., Waltham, USA). RAW data files containing accurate mass data and fragmentation spectra generated in the acquisition software Chromeleon (v7.2 SR3 (7553), Thermo Fisher Scientific Inc., Waltham, USA) were input into Compound Discoverer and processed using the targeted workflow described in Fig. 1 of the Appendix. The final time point of a parallel incubation of a different compound was used as a sample blank and any chromatographic peaks identified with the same m/z and retention time as in this sample were marked as background compounds and therefore not considered as potential metabolites. The Compound Discoverer application combines accurate mass data, isotope pattern matching and predicted biotransformations based on the parent compound's structure to generate a series of expected and unexpected compounds or metabolites. These were manually filtered using a typical criteria of peak area greater than or equal to 5000 counts per sec; compound identified in samples of at least three time points and peak area ratio of compound in Tx relative to T0 greater than or equal to 2, where Tx represents any given time point. […] The fragmentation spectra of these analytes were compared to those of the parent to facilitate structural interpretation of biotransformations. […]

FLT3 = molecular target: T1, FLT3 (Homo sapiens, UniProt P36888); assay: KINOMEscan Kd determination against FLT3; type: binding; settings: 11-point 3-fold dilution series, top concentration 5 μM
T1 sequence (P36888 27-993): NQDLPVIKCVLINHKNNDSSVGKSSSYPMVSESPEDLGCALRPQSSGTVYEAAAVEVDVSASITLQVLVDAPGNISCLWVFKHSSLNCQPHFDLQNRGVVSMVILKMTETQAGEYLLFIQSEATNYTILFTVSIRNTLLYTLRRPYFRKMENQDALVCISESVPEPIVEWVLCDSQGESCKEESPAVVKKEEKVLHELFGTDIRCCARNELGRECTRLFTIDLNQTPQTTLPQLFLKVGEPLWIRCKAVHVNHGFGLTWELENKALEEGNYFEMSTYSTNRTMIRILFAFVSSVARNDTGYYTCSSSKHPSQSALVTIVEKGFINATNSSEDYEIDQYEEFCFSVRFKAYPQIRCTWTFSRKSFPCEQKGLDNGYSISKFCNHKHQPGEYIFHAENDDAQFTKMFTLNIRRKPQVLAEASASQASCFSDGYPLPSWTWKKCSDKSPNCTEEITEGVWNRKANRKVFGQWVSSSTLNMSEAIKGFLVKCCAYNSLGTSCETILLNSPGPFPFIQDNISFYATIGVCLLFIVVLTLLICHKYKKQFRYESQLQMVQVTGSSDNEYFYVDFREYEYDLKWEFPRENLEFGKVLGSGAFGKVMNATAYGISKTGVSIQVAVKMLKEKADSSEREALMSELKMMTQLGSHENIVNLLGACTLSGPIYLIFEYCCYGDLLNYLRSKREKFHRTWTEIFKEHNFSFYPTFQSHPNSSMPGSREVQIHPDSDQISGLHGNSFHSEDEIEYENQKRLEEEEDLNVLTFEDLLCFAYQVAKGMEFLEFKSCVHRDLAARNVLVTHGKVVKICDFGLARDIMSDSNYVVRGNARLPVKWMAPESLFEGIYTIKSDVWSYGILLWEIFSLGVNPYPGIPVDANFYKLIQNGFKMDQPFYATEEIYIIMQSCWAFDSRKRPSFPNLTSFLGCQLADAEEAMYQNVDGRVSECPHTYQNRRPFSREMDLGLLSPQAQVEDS
Description: (§5) Kds were determined using an 11-point 3-fold compound dilution series (top concentration 5 μM) with three DMSO control points.

Aurora-B = Aurora-B (Homo sapiens, UniProt Q96GD4); assay: KINOMEscan Kd determination against Aurora-B; type: binding; settings: 11-point 3-fold dilution series, top concentration 5 μM
Description: as §5

Aurora-A = molecular target: T2, Aurora-A (Homo sapiens, UniProt O14965); assay: KINOMEscan Kd determination against Aurora-A; type: binding; settings: 11-point 3-fold dilution series, top concentration 5 μM
T2 sequence (O14965 1-403): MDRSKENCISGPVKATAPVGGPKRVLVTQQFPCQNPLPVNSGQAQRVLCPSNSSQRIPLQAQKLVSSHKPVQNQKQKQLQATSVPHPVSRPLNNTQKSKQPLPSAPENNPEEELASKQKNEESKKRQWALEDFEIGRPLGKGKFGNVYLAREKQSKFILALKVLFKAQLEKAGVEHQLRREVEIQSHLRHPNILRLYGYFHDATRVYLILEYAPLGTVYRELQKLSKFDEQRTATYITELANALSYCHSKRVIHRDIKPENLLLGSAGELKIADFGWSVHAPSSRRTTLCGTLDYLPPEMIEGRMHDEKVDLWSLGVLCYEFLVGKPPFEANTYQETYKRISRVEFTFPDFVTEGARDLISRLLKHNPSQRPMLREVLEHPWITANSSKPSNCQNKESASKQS
Description: as §5

FLT3-ITD = molecular target: T3, FLT3-ITD (Homo sapiens, UniProt P36888, ITD); assay: KINOMEscan Kd determination against FLT3-ITD; type: binding; settings: 11-point 3-fold dilution series, top concentration 5 μM
T3 sequence (P36888 564-993): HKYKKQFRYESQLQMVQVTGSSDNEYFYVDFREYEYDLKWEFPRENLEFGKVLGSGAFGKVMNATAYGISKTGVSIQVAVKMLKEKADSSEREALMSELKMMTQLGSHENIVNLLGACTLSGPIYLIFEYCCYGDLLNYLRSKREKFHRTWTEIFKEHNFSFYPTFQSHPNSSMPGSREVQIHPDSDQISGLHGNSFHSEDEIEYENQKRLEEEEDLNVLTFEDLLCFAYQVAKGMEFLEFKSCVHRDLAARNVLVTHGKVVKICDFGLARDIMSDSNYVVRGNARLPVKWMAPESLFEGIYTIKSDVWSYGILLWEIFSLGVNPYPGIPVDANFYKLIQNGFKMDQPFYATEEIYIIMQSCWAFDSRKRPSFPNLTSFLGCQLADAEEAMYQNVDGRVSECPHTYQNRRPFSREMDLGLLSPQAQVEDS
Description: as §5

[2] = Metabolite profiling in mouse hepatocytes and MLM; type: in vitro ADME; settings: for % total metabolite response: MLM 1 mg/ml, 1 μM; for maximal metabolite abundance, % of T0 parent (LC-MS/MS response): mouse hepatocytes and MLM; for % T0 parent response, minor metabolites: mouse, matrix not stated
Description: as §1, §2, §3, §4

[3] = Metabolite profiling in dog hepatocytes and DLM; type: in vitro ADME; settings: dog hepatocytes and microsomes of both sexes
Description: as §1, §2
(§6) For the purpose of metabolite identification, samples were analysed using a Dionex Ultimate 3000 UHPLC system coupled to a ThermoScientific Q Exactive Plus orbitrap mass spectrometer (Thermo Fisher Scientific Inc., Waltham, USA). […] The UV absorbance of samples at 230 nm and 260 nm was monitored using a Dionex Ultimate 3000 diode array detector. […]

[4] = Metabolite profiling in rat hepatocytes and RLM; type: in vitro ADME
Description: as §1, §2, §6

Aurora-B, sequence (Q96GD4 whole entry): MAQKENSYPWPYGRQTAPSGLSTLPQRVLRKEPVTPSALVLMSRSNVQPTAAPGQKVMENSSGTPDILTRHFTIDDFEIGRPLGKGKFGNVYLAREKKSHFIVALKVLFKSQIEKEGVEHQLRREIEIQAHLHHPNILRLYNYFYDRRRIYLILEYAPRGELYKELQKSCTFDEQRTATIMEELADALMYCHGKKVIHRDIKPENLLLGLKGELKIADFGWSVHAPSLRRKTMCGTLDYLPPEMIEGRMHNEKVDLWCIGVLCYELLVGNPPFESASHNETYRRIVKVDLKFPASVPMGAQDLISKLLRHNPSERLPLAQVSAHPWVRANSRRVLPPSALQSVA

In the case of `Cc1nn(C)cc1-c1nc2c(N3CCNCC3)c(Cl)cnc2[nH]1` [Compound M1], the “metabolite abundance, % of parent LC-MS response at T0” value (“metabolite abundance, % … at T0” below) ([1]; HLM, final sampled time point) is reported as 10.6%, the “metabolite abundance, % … at T0” value ([1]; human hepatocytes and HLM) is reported as “approximately 10%” and the “metabolite abundance, % … at T0” value ([1]; human hepatocytes, final sampled time point) is reported as 9.4%. The Kd (FLT3) was 7.9 nM, the Kd (Aurora-B) was 130 nM and the Kd (Aurora-A) was 33 nM. The Kd (FLT3-ITD) was 82 nM and the “% total metabolite response” value ([2]; peak of initial increase) was “up to 7%”.
With `Cc1nn(C)cc1-c1nc2c(N3CC[N+]([O-])(Cc4ccc(Cl)cc4)CC3)c(Cl)cnc2[nH]1` [Compound M2] the “% total metabolite response” value ([1]; HLM 1 mg/ml, 1 μM, 60 min incubation) was 3.5%, the “% total metabolite response” value ([2]; within the first 30 min of incubation) was > 25% and the “maximal metabolite abundance, % of T0 parent (LC-MS/MS response)” value (“maximal metabolite abundance, %” for short) [2] was > 10%.
In the case of `Cc1n[nH]cc1-c1nc2c(N3CCN(Cc4ccc(Cl)cc4)CC3)c(Cl)cnc2[nH]1` [Compound M3], the “metabolite abundance, % … at T0” value ([1]; human hepatocytes and HLM) is reported as < 2%, the “maximal metabolite abundance, %” value [3] is reported as > 10% and the “% T0 parent response, minor metabolites” value [2] is reported as < 2%.
In the case of `Cc1nn(C)cc1-c1nc2c(NCCNCc3ccc(Cl)cc3)c(Cl)cnc2[nH]1` [Compound M4], the “metabolite abundance, % … at T0” value ([1]; human hepatocytes and HLM) is reported as < 2%, the “metabolite abundance, % of parent” value ([4]; RLM, at most) is reported as < 2% and the “maximal metabolite abundance, %” value ([4]; rat hepatocytes) is reported as 8–10%.
With `Cc1n[nH]cc1-c1nc2c(N3CCNCC3)c(Cl)cnc2[nH]1` [Compound M6] the “metabolite abundance, % of T0 parent (LC-MS response)” value [1] was < 2% and the “% T0 parent response, minor metabolites” value [2] was < 2%.
With `Cc1nn(C)cc1-c1nc2c(NCCN)c(Cl)cnc2[nH]1` [Compound M7] the “metabolite abundance, % of T0 parent (LC-MS response)” value [1] was < 2% and the “maximal metabolite abundance, %” value [2] was > 10%.
